# Test results published in US20250032485A1, “APPLICATION OF IMIDAZO [1,2-A] PYRAZINE COMPOUNDS OR THEIR PHARMACEUTICALLY ACCEPTABLE SALTS IN THE PREPARATION OF ANTI-CORONAVIRUS DRUGS” (GUANGZHOU MEDICAL UNIVERSITY, priority 2023, published 2025).
# pIC50: −log10 of the molar value. Like-named read-outs stand apart in the source and are kept apart here.
# Legend:
# PLpro of SARS-CoV-2 [1] = target: T1, PLpro of SARS-CoV-2 (Severe acute respiratory syndrome coronavirus 2, UniProt P0DTD1); test: Enzyme activity test in vitro: inhibition of PLpro at fixed concentration 50 μM (RLRGG-AMC substrate); format: biochemical; settings: read-out: Inhibition rate at 50 μM (%)
# PLpro of SARS-CoV-2 [2] = target: T1, PLpro of SARS-CoV-2; test: IC50 determination of inhibition of PLpro activity (RLRGG-AMC substrate); format: biochemical; settings: 13 concentrations 100 μM to 0.0244 μM, GraphPad Prism
# [3] = compound 50 μM, 10 min preincubation at 37° C., Table 1
smiles,measurement,setting,value
"COC(=O)c1cccc(Nc2c(-c3ccc(N4CCOCC4)cc3)nc3cnccn23)c1 [P141, methyl 3-[[2-(4-morpholin-4-ylphenyl)imidazo [1,2-a]pyrazin-3-yl]amino]benzoate]",inhibition at 50 µM,PLpro of SARS-CoV-2 [1]; [3],63.8%
same,pIC50,PLpro of SARS-CoV-2 [2],4.42
"O=C(O)c1ccc(Nc2c(-c3ccc(Cl)cc3)nc3cnccn23)cc1 [P18224, 4-[[2-(4-chlorophenyl)imidazo[1,2-a]pyrazin-3-yl]amino] benzoic acid]",inhibition at 50 µM,PLpro of SARS-CoV-2 [1]; [3],54.6%
same,pIC50,PLpro of SARS-CoV-2 [2],4.42
"COc1ccc(-c2nc3cnccn3c2Nc2ccc(C(N)=O)cc2)cc1 [P19442, 4-[[2-(4-methoxyphenyl)imidazo[1,2-a]pyrazin-3-yl]amino] benzamide]",inhibition at 50 µM,PLpro of SARS-CoV-2 [1]; [3],61.1%
same,pIC50,PLpro of SARS-CoV-2 [2],4.36
"CNC(=O)c1cccc(Nc2c(-c3ccc(N(C)C)cc3)nc3cnccn23)c1 [P19443, 3-[[2-[4-(dimethyl-amino)phenyl]imidazo [1,2-a]pyrazin-3-yl]amino]-N-methyl-benzamide]",inhibition at 50 µM,PLpro of SARS-CoV-2 [1]; [3],53%
same,pIC50,PLpro of SARS-CoV-2 [2],4.51
"CSc1ccc(-c2nc3cnccn3c2Nc2ccc(C(=O)O)cc2)cc1 [P19445, 4-[[2-(4-methyl-sulfanylphenyl)imidazo [1,2-a]pyrazin-3-yl]amino]benzoic acid]",inhibition at 50 µM,PLpro of SARS-CoV-2 [1]; [3],50.2%
same,pIC50,PLpro of SARS-CoV-2 [2],4.32
"COC(=O)c1cccc(Nc2c(-c3ccc(N(C)C)cc3)nc3cnccn23)c1 [P19446, methyl 3-[[2-[4-(dimethyl-amino)phenyl]imidazo [1,2-a]pyrazin-3-yl]amino]benzoate]",inhibition at 50 µM,PLpro of SARS-CoV-2 [1]; [3],65.8%
same,pIC50,PLpro of SARS-CoV-2 [2],4.52
"Cc1ccc(-c2nc3cnccn3c2Nc2ccc(C(N)=O)cc2)cc1 [P19452, 4-[[2-(4-methyl-phenyl)imidazo[1,2-a]pyrazin-3-yl]amino] benzamide]",inhibition at 50 µM,PLpro of SARS-CoV-2 [1]; [3],53.1%
same,pIC50,PLpro of SARS-CoV-2 [2],4.55
"COc1ccc(Nc2c(-c3ccc(OC)c(OC)c3)nc3cnccn23)cc1OC [P19453, N,2-bis(3,4-dimethoxy-phenyl)imidazo [1,2-a]pyrazin-3-amine]",inhibition at 50 µM,PLpro of SARS-CoV-2 [1]; [3],65.5%
same,pIC50,PLpro of SARS-CoV-2 [2],5.19
"COc1ccc(-c2nc3cnccn3c2Nc2ccc(C(N)=O)cc2)cc1OC [P19454, 4-[[2-(3,4-dimethoxy-phenyl)imidazo [1,2-a]pyrazin-3-yl]amino]benzamide]",inhibition at 50 µM,PLpro of SARS-CoV-2 [1]; [3],53.8%
same,pIC50,PLpro of SARS-CoV-2 [2],4.43
"COc1cc(-c2nc3cnccn3c2Nc2ccc(C(=O)O)cc2)ccc1O [P19455, 4-[[2-(4-hydroxy-3-methoxyphenyl)imidazo[1,2-a]pyrazin-3-yl]amino]benzoic acid]",inhibition at 50 µM,PLpro of SARS-CoV-2 [1]; [3],53.1%
same,pIC50,PLpro of SARS-CoV-2 [2],4.58
"COC(=O)c1cccc(Nc2c(-c3cccc(Cl)c3)nc3cnccn23)c1 [P19456, methyl 3-[[2-(3-chlorophenyl)imidazo[1,2-a]pyrazin-3-yl]amino] benzoate]",inhibition at 50 µM,PLpro of SARS-CoV-2 [1]; [3],47.8%
same,pIC50,PLpro of SARS-CoV-2 [2],4.22
"CSc1ccc(-c2nc3cnccn3c2Nc2ccc(C(N)=O)cc2)cc1 [P19462, 4-[[2-(4-methyl-sulfanylphenyl)imidazo [1,2-a]pyrazin-3-yl]amino]benzamide]",inhibition at 50 µM,PLpro of SARS-CoV-2 [1]; [3],65%
same,pIC50,PLpro of SARS-CoV-2 [2],4.59
"COc1ccc(-c2nc3cnccn3c2Nc2ccc(C(=O)NC3CCCCC3)cc2)cc1 [P22414, N-cyclohexyl-4-[[2-(4-methoxyphenyl)imidazo[1,2-a]pyrazin-3-yl]amino]benzamide]",inhibition at 50 µM,PLpro of SARS-CoV-2 [1]; [3],51.1%
same,pIC50,PLpro of SARS-CoV-2 [2],4.34
"Cc1ccc(-c2nc3cnccn3c2Nc2ccc(C(=O)N3CCOCC3)cc2)cc1 [P22415, [4-[[2-(4-methyl-phenyl)imidazo[1,2-a]pyrazin-3-yl]amino]phenyl]-morpholin-4-ylmethanone]",inhibition at 50 µM,PLpro of SARS-CoV-2 [1]; [3],63.3%
same,pIC50,PLpro of SARS-CoV-2 [2],4.30
"Cc1ccc(-c2nc3cnccn3c2Nc2ccc(C(=O)NCCN3CCOCC3)cc2)cc1 [P22423, 4-[[2-(4-methylphenyl)imidazo[1,2-a]pyrazin-3-yl]amino]-N-(2-morpholin-4-ylethyl)benzamide]",inhibition at 50 µM,PLpro of SARS-CoV-2 [1]; [3],54.5%
same,pIC50,PLpro of SARS-CoV-2 [2],4.47
"O=C(NC1CCCCC1)c1cccc(Nc2c(-c3ccc(Cl)cc3)nc3cnccn23)c1 [P22438, 3-[[2-(4-chlorophenyl)imidazo[1,2-a]pyrazin-3-yl]amino]-N-cyclohexyl-benzamide]",inhibition at 50 µM,PLpro of SARS-CoV-2 [1]; [3],54.2%
same,pIC50,PLpro of SARS-CoV-2 [2],4.39
"COc1ccc(-c2nc3cnccn3c2Nc2ccc(C(=O)NCc3ccco3)cc2)cc1 [P22445, N-(furan-2-ylmethyl)-4-[[2-(4-methoxy-phenyl)imidazo[1,2-a]pyrazin-3-yl]amino]benzamide]",inhibition at 50 µM,PLpro of SARS-CoV-2 [1]; [3],62.3%
same,pIC50,PLpro of SARS-CoV-2 [2],4.86
"CCNC(=O)c1ccc(Nc2c(-c3ccc(OC)cc3)nc3cnccn23)cc1 [P22471, Nethyl-4-[[2-(4-methoxyphenyl)imidazo[1,2-a]pyrazin-3-yl]amino]benzamide]",inhibition at 50 µM,PLpro of SARS-CoV-2 [1]; [3],52.8%
same,pIC50,PLpro of SARS-CoV-2 [2],4.45
"COc1ccc(-c2nc3cnccn3c2Nc2cccc(C(N)=O)c2)cc1 [P22475, 3-[[2-(4-methoxy-phenyl)imidazo[1,2-a]pyrazin-3-yl]amino] benzamide]",inhibition at 50 µM,PLpro of SARS-CoV-2 [1]; [3],60.1%
same,pIC50,PLpro of SARS-CoV-2 [2],4.78
CSc1ccc(-c2nc3cnccn3c2Nc2cccc(C(=O)NCc3ccco3)c2)cc1 [P22479],inhibition at 50 µM,PLpro of SARS-CoV-2 [1]; [3],58.8%
same,pIC50,PLpro of SARS-CoV-2 [2],4.45
"COC(=O)c1cccc(Nc2c(-c3cccc(Br)c3)nc3cnccn23)c1 [P32343, methyl 3-[[2-(3-bromophenyl)imidazo[1,2-a]pyrazin-3-yl]amino] benzoate]",inhibition at 50 µM,PLpro of SARS-CoV-2 [1],12.9%
"CCc1cccc(C)c1Nc1c(-c2ccc(C(=O)OC)cc2)nc2cnccn12 [P36232, methyl 4-[3-(2-ethyl-6-methylanilino)imidazo [1,2-a]pyrazin-2-yl]benzoate]",inhibition at 50 µM,PLpro of SARS-CoV-2 [1],20.3%
"COC(=O)c1ccc(-c2nc3cnccn3c2NC2CCCC2)cc1 [P37287, methyl 4-[3-(cyclopentyl-amino)imidazo[1,2-a]pyrazin-2-yl] benzoate]",inhibition at 50 µM,PLpro of SARS-CoV-2 [1],21%
"COC(=O)c1cccc(Nc2c(-c3cccc(O)c3)nc3cnccn23)c1 [P37288, methyl 3-[[2-(3-hydroxy-phenyl)imidazo[1,2-a]pyrazin-3-yl]amino]benzoate]",inhibition at 50 µM,PLpro of SARS-CoV-2 [1],13.2%
"COC(=O)c1ccc(-c2nc3cnccn3c2Nc2ccc(C(C)C)cc2)cc1 [P37297, methyl 4-[3-(4-propan-2-ylanilino)imidazo[1,2-a]pyrazin-2-yl] benzoate]",inhibition at 50 µM,PLpro of SARS-CoV-2 [1],22.3%
"CSc1ccc(-c2nc3cnccn3c2Nc2cccc(C(=O)O)c2)cc1 [P37298, 3-[[2-(4-methyl-sulfanylphenyl)imidazo [1,2-a]pyrazin-3-yl]amino]benzoic acid]",inhibition at 50 µM,PLpro of SARS-CoV-2 [1],33.6%
"COC(=O)c1ccc(-c2nc3cnccn3c2Nc2c(C)cccc2C)cc1 [P37307, methyl 4-[3-(2,6-dimethyl-anilino)imidazo[1,2-a]pyrazin-2-yl] benzoate]",inhibition at 50 µM,PLpro of SARS-CoV-2 [1],43.4%
"Cc1ccc(-c2nc3cnccn3c2Nc2cccc(C(=O)O)c2)cc1 [P37308, 3-[[2-(4-methyl-phenyl)imidazo[1,2-a]pyrazin-3-yl]amino] benzoic acid]",inhibition at 50 µM,PLpro of SARS-CoV-2 [1],20.8%
"COC(=O)c1ccc(-c2nc3cnccn3c2Nc2cccc(C(F)(F)F)c2)cc1 [P37317, methyl 4-[3-[3-(trifluoro-methyl)anilino]imidazo [1,2-a]pyrazin-2-yl]benzoate]",inhibition at 50 µM,PLpro of SARS-CoV-2 [1],27.6%
"O=C(O)c1cccc(Nc2c(-c3ccccc3O)nc3cnccn23)c1 [P37318, 3-[[2-(2-hydroxy-phenyl)imidazo[1,2-a]pyrazin-3-yl]amino] benzoic acid]",inhibition at 50 µM,PLpro of SARS-CoV-2 [1],15.9%
"COC(=O)c1cccc(Nc2c(-c3ccc(O)cc3)nc3cnccn23)c1 [P37327, methyl 3-[[2-(4-hydroxy-phenyl)imidazo[1,2-a]pyrazin-3-yl]amino] benzoate]",inhibition at 50 µM,PLpro of SARS-CoV-2 [1],48.5%
"O=C(O)c1cccc(Nc2c(-c3ccc([N+](=O)[O-])cc3)nc3cnccn23)c1 [P37328, 3-[[2-(4-nitrophenyl)imidazo[1,2-a]pyrazin-3-yl]amino] benzoic acid]",inhibition at 50 µM,PLpro of SARS-CoV-2 [1],17.2%
"COC(=O)c1cccc(Nc2c(-c3ccc(Cl)cc3)nc3cnccn23)c1 [P37337, methyl 3-[[2-(4-chlorophenyl)imidazo[1,2-a]pyrazin-3-yl]amino] benzoate]",inhibition at 50 µM,PLpro of SARS-CoV-2 [1],23%
"O=C(O)c1cccc(Nc2c(-c3cccc(O)c3)nc3cnccn23)c1 [P37338, 3-[[2-(3-hydroxy-phenyl)imidazo[1,2-a]pyrazin-3-yl]amino] benzoic acid]",inhibition at 50 µM,PLpro of SARS-CoV-2 [1],11.7%
"COC(=O)c1cccc(Nc2c(-c3ccccc3O)nc3cnccn23)c1 [P37347, methyl 3-[[2-(2-hydroxy-phenyl)imidazo[1,2-a]pyrazin-3-yl]amino] benzoate]",inhibition at 50 µM,PLpro of SARS-CoV-2 [1],25%
"CCc1cccc(C)c1Nc1c(-c2ccc(N)cc2)nc2cnccn12 [P37348, 2-(4-aminophenyl)-N-(2-ethyl-6-methyl-phenyl)imidazo[1,2-a]pyrazin-3-amine]",inhibition at 50 µM,PLpro of SARS-CoV-2 [1],16%
"Fc1ccc(-c2nc3cnccn3c2Nc2ccc(Cl)cc2)cc1 [P37356, N-(4-chlorophenyl)-2-(4-fluorophenyl) imidazo[1,2-a] pyrazin-3-amine]",inhibition at 50 µM,PLpro of SARS-CoV-2 [1],3.18%
"COC(=O)c1cccc(Nc2c(-c3ccc(F)cc3)nc3cnccn23)c1 [P37357, methyl 3-[[2-(4-fluorophenyl)imidazo[1,2-a]pyrazin-3-yl]amino] benzoate]",inhibition at 50 µM,PLpro of SARS-CoV-2 [1],4.32%
